Entries after “also recorded” stand apart in the source; their conditions may differ.
Legend:
[1] = test system: superoxide dismutase (SOD); assay: Paw tissue oxidative stress biomarker SOD; type: in vivo, rat; details: carrageenan rats, 200 mg/kg i.p.
Procedure: The selective pro-inflammatory cytokines were measured quantitatively using rat-specific Enzyme-Linked Immunosorbent Assay (ELISA) kits from Thermo Scientific™ (Waltham, MA, USA) with CAT. No. ERCRP for CRP; from Elabscience with Cat. No. E-EL-R2856 for TNF-α and with Cat. No. E-EL-R0011 for IL-1α; from CUSABIO, Houston, TX, USA, with Cat. No. CSB-E04640r for IL-6; and from My BioSource Co, USA, with Cat. No. MBS825017 for IL-1β, with Cat. No. MBS753621 for rat cyclooxygenase 1, and with Cat. No. MBS266603 for rat cyclooxygenase 2. Meanwhile, an ovine COX inhibitor-screening in vitro assay (item number 760111) was obtained from Cayman Chemical (Ann Arbor, MI, USA). We purchased malondialdehyde (MDA), glutathione (GSH), and superoxide dismutase (SOD) detection kits from Nanjing Jiancheng Bio-Technology Co. Ltd. (Nanjing, China).
(§1) At the end of the experiments, the rats were subjected to anesthesia with chloroform and then sacrificed. Blood was obtained via heart puncture for biochemical analysis. Following the animals’ sacrifice, the paws were taken out, decalcified, and stored in a 10% formalin solution. To prepare the tissue samples, they were sliced into thicknesses of 5 µm. Hematoxylin and eosin dyes were used to create the histology slides, which were then examined using a photomicroscope (Meiji Techno®, Iruma, Japan) for pathological alterations. The presence of inflammation was documented. Protease/phosphatase inhibitor cocktail in cold phosphate-buffered saline (1:4) (pH 7, 0.01 mol/L) (Cat. No. PPC1010, Sigma-Aldrich) was used to homogenize each rat’s paw piece in a glass homogenizer. After filtering and centrifuging the resultant homogenate for five minutes at 5000× g, oxidative stress biomarkers like GSH, SOD, and MDA were measured. The trials were repeated three times.

COX-2 = assay: In vitro colorimetric COX (ovine) inhibitor-screening assay, COX-2; type: biochemical; details: ovine COX-2, tested at 50, 100 and 150 µg/mL
Procedure: The test compounds’ ability to suppress COX-1 and COX-2 was evaluated using a colorimetric COX (ovine) inhibitor-screening method (Cayman Chemical, Item Number 760111). In brief, 150 μL of assay buffer, 10 μL of heme, 10 μL of enzyme (COX-1 or COX-2), and 10 μL of compound (1 mg/mL) make up the reaction mixture. In a final volume of […], the test compounds were evaluated at doses of 50, 100, and 150 μg/mL. The cyclooxygenase peroxidase component is used in the experiment. By monitoring the appearance of oxidized N, N, […] (TMPD) at 590 nm, the peroxidase activity is measured […]. […] The following formula was used to determine the % COX inhibition: The COX inhibition activity percentage is equal to (1 − T/C ×100), where T is the inhibitor well’s absorbance and C is the starting activity’s absorbance at 100% without the inhibitor well.

rat paw tissue = assay: Histopathological examination of paw tissue (HE); type: in vivo; details: carrageenan-injected paw; compounds 200 mg/kg i.p., indomethacin 10 mg/kg
Excerpt: as §1

Wistar rats = assay: Acute toxicity pilot study (OECD 423); type: in vivo; details: rat, i.p., 200 mg/kg
Procedure: According to OECD guidelines (Testing of Chemical Number 423), the study was carried out. In this study, mature male Wistar rats in good health were selected. After a 24 h fast, the animals were divided into groups of six. The test compounds were injected intraperitoneally at dosages ranging from 100 mg to 2000 mg per kilogram, dissolved in 2% Tween 80 saline solutions (v/v). The animals in the control groups were given just the vehicle, which was Tween 80 in 0.9% normal saline. […] Thus, 200 mg/kg (ED 50), which is considered one-tenth of the LD 50, was chosen as the anti-inflammatory dose.

[2] = test system: carrageenan-induced rat paw edema; assay: Carrageenan-induced paw edema; type: in vivo; details: for inhibition of paw edema after 1 h / inhibition of paw edema after 2 h / inhibition of paw edema after 3 h: 200 mg/kg i.p.; for inhibition of paw edema after 1 h: 1 h after carrageenan; for inhibition of paw edema after 2 h: 2 h after carrageenan; for inhibition of paw edema after 3 h: 3 h after carrageenan; for inhibition of paw edema after 4 h: compounds 200 mg/kg i.p., indomethacin 10 mg/kg, 4 h after carrageenan
Excerpt: Rats’ carrageenan-induced paw edema model was used to assess the novel synthesized drugs’ anti-inflammatory properties. A total of 180–190 g of male Wistar rats were used for the experiments. In the animal house at Sohag University in Sohag, Egypt, every animal was kept in careful laboratory conditions. After being weighed and divided into six groups at random, the animals are housed for a week to reduce stress and allow them to get used to the laboratory environment. The chemicals that were synthesized were administered intraperitoneally (i.p.) to rats at a dosage of 200 mg/kg. The control group received only vehicles. […] The rats were given a 0.2 mL sub-plantar injection of a 1% (w/v) suspension of carrageenan (made in PBS) in their right hind paw thirty minutes following the injection of synthesized compounds [33]. […] The % inhibition of paw edema was calculated by the following formula [34]:%Inhibition = ((Mean edema of control group − Mean edema of test compound)/(Mean edema of control group)) × 100.

[3] = listed as compound 3, 200 mg/kg

SMILES | SOD activity [1] | COX-2 inhibition % (mean activity) (COX-2) | histopathological findings of paw tissue (HE) (rat paw tissue) | Ability to feed (Wistar rats) | Change in skin color (Wistar rats) | Death (Wistar rats) | Diarrhea (Wistar rats) | Drowsiness (Wistar rats) | Dyspnea (Wistar rats) | Micturition (Wistar rats) | Seizures (Wistar rats) | Weight loss (Wistar rats) | inhibition of paw edema after 1 h [2] | inhibition of paw edema after 2 h [2] | inhibition of paw edema after 3 h [2] | inhibition of paw edema after 4 h [2] | further results
NC1=NC2(CCCCCC2)n2nc(C(=O)Nc3ccc(S(N)(=O)=O)cc3)nc2N1 [Compound 1, 5′-Amino-N-(4-sulfamoylphenyl). -1′H-spiro[cycloheptane-1,7′-[1,2,4]triazolo[1,5-a][1,3,5] -triazine] -2′-carboxamide] | notable improvements | 98% | mild inflammatory dermal edema | Normal | Normal | No | Present | Absent | Absent | Normal | Absent | No | 53.6% | 65.74% | 78.52% | 96.31% | Death (Wistar rats; listed as compound 1, 200 mg/kg): no mortality
CC1(C)CC(=O)CC2(C1)N=C(N)Nc1nc(C(=O)Nc3ccc(S(N)(=O)=O)cc3)nn12 (stereo not shown) [Compound 2] | notable improvements | 98% | moderate edema | Normal | Normal | No | Present | Absent | Absent | Normal | Absent | No | – | – | – | 72.08% | Death (Wistar rats; listed as compound 2, 200 mg/kg): no mortality
NC1=NC2(c3ccccc3Cc3ccccc32)n2nc(C(=O)Nc3ccc(S(N)(=O)=O)cc3)nc2N1 [Compound 3] | – | 99% | normal dermis; also recorded: normal dermis without any lesion; also recorded: normal histological structure without edema or lesions | Normal | Normal | No | Present | Absent | Absent | Normal | Absent | No | 59.5% | 79.93% | 97.23% | 99.69% | SOD activity ([1]; 200 mg/kg): near-control values; SOD activity [1, 3]: 38.48 ± 0.31 U/mg protein; Death (Wistar rats; [3]): no mortality

— article PMC12292862 (Biomedicines, 2025)
